This is an account of results in patent US9546153B2, “Bicyclic heterocycle substituted pyridyl compounds useful as kinase modulators” (BRISTOL-MYERS SQUIBB COMPANY, priority 2012, dated 2017).

The target of one experiment is IRAK4 (Homo sapiens (Human), UniProt Q9NWZ3). Description: IRAK4 Inhibition Assay. It is filed as biochemical. The following applies: ATP 500 μM; IRAK4 0.6 nM; 60 min at room temperature. Here is the method:
The assays were performed in U-bottom 384-well plates. […] The reaction was initiated by the combination of IRAK4 with substrates and test compounds. The reaction was incubated at room temperature for 60 min. and terminated by adding 45 μL of 35 mM EDTA to each sample. The reaction mixture was analyzed on the Caliper LABCHIP® 3000 (Caliper, Hopkinton, Mass.) by electrophoretic separation of the fluorescent substrate and phosphorylated product.

Experiment [1] concerns TLR2 induced IL-6 in peripheral blood mononuclear cells (PBMCs). Put plainly: PBMC TLR2 Induced IL-6 Assay. The class given is cell-based, human. Particulars: Homo sapiens, PBMC, 5 h, human PBMCs, 10 μg/ml lipoteichoic acid for 5 hours, IL-6 by ELISA; EC50 determinations are indicated with an asterisk; read-out: Cell EC50 (asterisk). The essentials:
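IL-6 ELISA of supernatants after a 5 h challenge with the TLR2 agonist lipoteichoic acid (10 μg/ml). Before stimulation, human PBMCs (250000 cells/well; RPMI, 10% heat-inactivated FCS) received compound for 30 min at 37° C. Values given as IC50 or EC50.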

Each structure is given as a SMILES string.

Chain of IRAK4 (Q9NWZ3 whole entry, species assumed): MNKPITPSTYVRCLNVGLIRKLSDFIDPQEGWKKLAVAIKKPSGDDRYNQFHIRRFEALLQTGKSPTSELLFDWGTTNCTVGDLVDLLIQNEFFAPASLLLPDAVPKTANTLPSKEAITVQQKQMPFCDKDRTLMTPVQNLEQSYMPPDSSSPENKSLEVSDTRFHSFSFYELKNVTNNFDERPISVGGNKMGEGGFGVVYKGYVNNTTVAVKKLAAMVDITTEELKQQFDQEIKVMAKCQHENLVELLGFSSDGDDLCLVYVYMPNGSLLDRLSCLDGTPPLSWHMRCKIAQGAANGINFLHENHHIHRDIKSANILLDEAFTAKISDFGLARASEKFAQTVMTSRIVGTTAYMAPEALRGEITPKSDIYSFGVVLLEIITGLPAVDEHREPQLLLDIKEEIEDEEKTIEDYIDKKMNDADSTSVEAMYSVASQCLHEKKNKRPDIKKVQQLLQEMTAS

With `CC(C)Nc1cc(Nc2ccc3ncsc3c2)ncc1C(=O)N[C@H]1CC[C@H]([N+](=O)[O-])CC1` [Example 523, 6-(benzo[d]thiazol-6-ylamino)-4-(isopropylamino)-N-((trans)-4-nitrocyclohexyl)nicotinamide], the IC50 on IRAK4 came out at 5.4 nM. Further, the EC50 in experiment [1] was determined as 365 nM.

As for `CC(C)Nc1cc(Nc2ccc3ncsc3c2)ncc1C(=O)NC1CCC(O)(c2ccnn2C)CC1` (stereo not shown) [Example 524], the IC50 on IRAK4 amounted to 3.7 nM. Besides, the EC50 in experiment [1] amounted to 75 nM.

`CC(C)Nc1cc(Nc2ccc3ncsc3c2)ncc1C(=O)NC1CCC2(CC1)NC(=O)NC2=O` (stereo not shown) [Example 525, 6-(benzo[d]thiazol-6-ylamino)-N-(2,4-dioxo-1,3-diazaspiro[4.5]decan-8-yl)-4-(isopropylamino)nicotinamide]: the 50% inhibitory concentration (IC50) at IRAK4 was determined as 1.5 nM. Further, in experiment [1], the EC50 turned out to be 131 nM.

In the case of `CC(C)Nc1cc(Nc2ccc3ncsc3c2)ncc1C(=O)NC1CCC(=O)CC1` [Example 526, 6-(benzo[d]thiazol-6-ylamino)-4-(isopropylamino)-N-(4-oxocyclohexyl)nicotinamide], the IC50 at IRAK4 worked out at 6.6 nM. The EC50 in experiment [1] came to 423 nM.

Consider `CC(C)Nc1cc(Nc2ccc3ncsc3c2)ncc1C(=O)NC1CCc2nnnn2CC1` (stereo not shown) [Example 527, 6-(benzo[d]thiazol-6-ylamino)-4-(isopropylamino)-N-(6,7,8,9-tetrahydro-5H-tetrazolo[1,5-a]azepin-7-yl)nicotinamide], for which the IC50 at IRAK4 worked out at 7.7 nM. In experiment [1], the EC50 came out at 320 nM.
